Tested on: arylamidase activity
Assay: Inhibitory effect of 5NSA on arylamidase activity (initial hydrolytic rates with and without added 5NSA)
Type: biochemical
Text: At 10 mmol/liter, 50% inhibition of all enzyme activities occurs. Interfering side reactions with 5NSA may occur. The compound reacts with both aliphatic and aromatic amine groups to form Schiff-Base complexes. Particularly susceptible are proteins containing lysine and glutamine. […] Cell proteins react at higher concentrations, i.e., above 1 mmol/liter of 5NSA, to form a blue-green fluorescence, which may account for as much as 15% of the cellular fluorescence at 530 nm. Use of appropriate filters to block out green fluorescence will block out the nonspecific cell protein reaction with 5NSA.

[1] = 1 mmol/liter 5NSA, initial hydrolytic rate with vs without 5NSA

O=Cc1cc([N+](=O)[O-])ccc1O [5NSA, 5-nitrosalicylaldehyde]
Effect on Carbobenzoxy-arg-arg-4M2NA hydrolysis [1]: not affected significantly | Effect on Lys-Ala-4M2NA activity [1]: not affected significantly | inhibition of all enzyme activities (10 mmol/liter 5NSA): 50%

— patent US4229528A, “Fluorescence method for enzyme analysis which couples aromatic amines with aromatic aldehydes” (priority 1978, dated 1980)
